In patent US20110263539A1, “SHIP 1 MODULATOR COMPOUNDS” (THE UNIVERSITY OF BRITISH COLUMBIA, priority 2006, published 2011):

Experiments:
Assay type in all cases: cell-based
J774.1a macrophage cells [1] = test: Macrophage TNF-α production (Assay 2); settings: 10 μg/mL test compound, 100 ng/mL LPS, ELISA
Method: Assay 2) Macrophage TNF-α production. J774.1a macrophage cells were treated with 10 μg/mL of test compound dissolved in solvent (e.g. cyclodextran) for 40 minutes prior to the addition of 100 ng/mL LPS. Culture supernatants were collected after 2 hr and 5 hr for TNF-α determination by ELISA.

J774.1a macrophage cells [2] = test: Macrophage TNF-α NO assay (Assay 3); settings: 10 μg/ml test compound, LPS, 24 hr, Griess reagent
Method: Assay 3) Macrophage TNF-α NO assay. J774.1a macrophage cells were treated with 10 μg/ml of test compound dissolved in solvent for 40 minutes prior to the addition of LPS. Culture supernatants were collected after 24 hr. for determination of NO concentration using the Griess reagent.

MM cell lines = test: In vitro Multiple Myeloma (MM) assay (Assay 7)
Method: Assay 7) In vitro Multiple Myeloma (MM) assay. The ability of SHIP activators to reduce tumor cell survival was assessed in MM cell lines treated with the test compound. The lines OPM1, OPM2, MM.1S and RPMI 8226 were plated at a density of 1×10^5 cells/mL in 200 μL of medium with various concentrations of the test compound, and viable cell numbers were determined on day 3 and day 5 by trypan blue exclusion. The lines RPMI 8226 and U266 were plated at a density of 1×10^6 cells/mL in 250 μL of medium with various concentrations of the test compound. At day 4, the medium of each culture was replaced by fresh medium containing the same concentration of test compound. At day 7, the viable cell number of each culture was determined by trypan blue exclusion.
MM cell lines were cultured in 96 well plates seeded with 3×10^4 cells suspended in 200 μL of medium along with various concentrations of test compound (and associated cyclodextran vehicle control), with LY294002 serving as a positive control in the experiments. After 24-48 hrs of culture, […] of [3H]-thymidine (GE Healthcare, Baie D'Urfe, Canada) being added for the final 8 hours. Cells were harvested and DNA associated radioactivity was measured via liquid scintillation counting using a Wallac Microbeta counter (Perkin-Elmer; Boston, Mass.).
The ability of SHIP activators to reduce tumor cell survival was assessed in multiple myeloma (MM) cell lines treated with Compound 100 or AQX-016A. The lines OPM1, OPM2, MM.1S and RPMI 8226 were plated at a density of 1×10^5 cells/mL in 200 μL of medium with various concentrations of Compound 100, and viable cell numbers were determined on day 3 and day 5 by trypan blue exclusion. The lines RPMI 8226 and U266 were plated at a density of 1×10^6 cells/mL in 250 μL of medium with various concentrations of AQX-016A. At day 4, the medium of each culture was replaced by fresh medium containing the same concentration of AQX-016A. At day 7, the viable cell number of each culture was determined by trypan blue exclusion. Experiments were performed in triplicate.
Proliferation (DNA synthesis) assays. Proliferation was measured by measuring incorporation of [^3H]-thymidine into cells. MM cell lines were cultured in 96 well plates seeded with 3×10^4 cells suspended in 200 μL, of medium along with various concentrations of Compound 100 or AQX-016A (and associated cyclodextran vehicle control), with LY294002 serving as a positive control in the indicated experiments. After 24-48 hrs of culture, 1 μCi of [^3H]-thymidine (GE Healthcare, Baie D'Urfe, Canada) being added for the final 8 hours. Plates were frozen, which also aided in cell lysis, to terminate the experiments. Cells were then harvested onto glass fibre filters using an automatic cell harvester (TomTech; Orange, Conn.) and DNA associated radioactivity was measured via liquid scintillation counting using a Wallac Microbeta counter (Perkin-Elmer; Boston, Mass.). Wells were set up in triplicate and data is expressed as mean+/−SEM.
Also: key: a ‘+’ indicates a positive result for desired activity; a ‘−’ indicates a negative result for desired activity.

| SMILES | Assay Number 2: Macrophage TNF-α production (J774.1a macrophage cells [1]) | Assay Number 3: Macrophage NO (J774.1a macrophage cells [2]) | Assay Number 7: In vitro Multiple Myeloma (MM) assay (MM cell lines) |
| --- | --- | --- | --- |
| Cc1cc2c(cc1O)C[C@@H]1[C@@]3(C)CCCC(C)(C)[C@@H]3CC[C@@]21C [Compound 101] | + | + | + |
| CC(=O)Oc1cc(C)c2c(c1)C[C@H]1[C@@]2(C)CCC2C(C)(C)CCC[C@@]21C (some centres unmarked) [Compound 102] | + | + |  |
| Cc1cc(OC(=O)C(N)CCCNC(=N)N)cc2c1[C@]1(C)CCC3C(C)(C)CCC[C@]3(C)[C@H]1C2 (some centres unmarked) [Compound 105] | + | + |  |
| Cc1cc(OP(=O)(O)O)cc2c1[C@]1(C)CCC3C(C)(C)CCC[C@]3(C)[C@H]1C2 (some centres unmarked) [Compound 109] | − | + | + |
| Cc1cc(OC(=O)C(CC(=O)O)NC(=O)CCC(=O)O)cc2c1[C@]1(C)CCC3C(C)(C)CCC[C@]3(C)[C@H]1C2 (some centres unmarked) [Compound 114] | + | + |  |
| CC1(C)CCC[C@]2(C)[C@H]3Cc4cc(O)cc(O)c4[C@]3(C)CC[C@@H]12 [Compound 115] |  |  | + |
| COc1cc(O)cc2c1[C@]1(C)CC[C@H]3C(C)(C)CCC[C@]3(C)[C@H]1C2 [Compound 117] | + | + | + |
| COc1ccc2c(c1O)C[C@@H]1[C@@]3(C)CCCC(C)(C)[C@@H]3CC[C@@]21C [Compound 118] | − | + | + |
| CC1(C)CCC[C@]2(C)[C@H]3Cc4cc(O)ccc4[C@]3(C)CC[C@@H]12 [Compound 121] | + | + | + |
| Cc1cc(O)c2c(c1)C[C@@H]1[C@@]3(C)CCCC(C)(C)[C@@H]3CC[C@@]21C [Compound 122] | − | + | + |
| Cc1cc(OC(=O)C(N)Cc2cnc[nH]2)cc2c1[C@]1(C)CCC3C(C)(C)CCC[C@]3(C)[C@H]1C2 (some centres unmarked) [Compound 123] | + | + |  |
| COc1cc(C)c2c(c1O)C[C@@H]1[C@@]3(C)CCCC(C)(C)[C@@H]3CC[C@@]21C [Compound 129] | − | + |  |
